Measurements: patent US20050106243A1, “Process for the preparation of free-flowing, pulverized atorvastatin adsorbates” (priority 2003, published 2005)

Assay: Impurity profile (sum of all impurities, HPLC) at start and after storage
Assay type: physicochemical
Description: All HPLC measurements were performed with an […].
Impurity profile: Sum of all the impurities: HPLC, in %: […]

Sum of all the impurities, HPLC (15 days (70° C./75% relative humidity)): 1.92%
Sum of all the impurities, HPLC (Start): 1.07%
SMILES: CC(C)c1c(C(=O)Nc2ccccc2)c(-c2ccccc2)c(-c2ccc(F)cc2)n1CC[C@@H](O)C[C@@H](O)CC(=O)[O-].CC(C)c1c(C(=O)Nc2ccccc2)c(-c2ccccc2)c(-c2ccc(F)cc2)n1CC[C@@H](O)C[C@@H](O)CC(=O)[O-].[Ca+2] (relative stereo) [amorphous atorvastatin calcium, calcium salt of [R-(R*,R*)]-2-(4-fluorophenyl)-β,δ-dihydroxy-5-(1-methylethyl)-3-phenylphenylamino)carbonyl]-1H-pyrrol-1-heptanoic acid]
